From PMC13352219, “Analysis of glutamine synthetase target‐site mutations and their role in endowing glufosinate‐ammonium resistance” (Pest Management Science, 2026)
Values joined by “and” are separate entries in the source; they are usually repeats but may differ in a detail not shown here. Equal values may be shown once.

Columns and labels:
[1] = tested on: Amaranthus palmeri cytosolic GS1.1 E69L; test: GS enzyme inhibition assay, GS1.1 E69L; type: biochemical
Experimental: (§1) GS activity was determined spectrophotometrically following the Sigma‐Aldrich enzymatic assay protocol. The reaction couples the ATP‐dependent conversion of L‐glutamate and ammonium to L‐glutamine with pyruvate kinase (PK) and L‐lactate dehydrogenase (LDH), such that oxidation of β‐NADH to β‐NAD^+ can be monitored at 340 nm. Recombinant GS from A. palmeri was expressed in E. coli, purified by affinity chromatography, and quantified by the Bradford method using bovine serum albumin as standard. […] Reaction mixtures were equilibrated to 37°C and initiated by the addition of enzyme, and the decrease in absorbance at 340 nm was recorded for 5–10 min; only the linear portion of the curve was used for activity calculations. […] Activity was calculated using an extinction coefficient for NADH of 6.22 mM^−1 cm^−1 and expressed as units per mg protein, where one unit corresponds to the formation of 1 μmol of L‐glutamine in […] at pH 7.1 and 37 °C. […] Percent inhibition was calculated relative to untreated (positive) and no‐enzyme (negative) controls. […] Resistance factors were calculated by dividing the IC₅₀ of each mutant variant by that of wild‐type GS.

[2] = tested on: Amaranthus palmeri cytosolic GS1.1 K36A; test: GS enzyme inhibition assay, GS1.1 K36A; type: biochemical
Experimental: as §1

[3] = target: Eleusine indica GS1.1 S59G; test: GS enzyme inhibition assay, ELEIN GS1.1 S59G; type: biochemical
[4] = tested on: GFA‐resistant E. indica population; set-up: method as in ref 10 = [10]; 10 Jalaludin A , Ngim J , Bakar BH and Alias Z , Preliminary findings of potentially resistant goosegrass ( Eleusine indica ) to glufosinate ammonium in Malaysia . Weed Biol Manage 10 : 256 – 260 ( 20); conditions: cited from earlier work
[5] = tested on: Amaranthus palmeri cytosolic GS1.1 V161N; test: GS enzyme inhibition assay, GS1.1 V161N; type: biochemical
Experimental: as §1

[6] = tested on: Amaranthus palmeri cytosolic GS1.1 V193T; test: GS enzyme inhibition assay, GS1.1 V193T; type: biochemical
Experimental: as §1

[7] = tested on: Amaranthus palmeri cytosolic GS1.1 H249R; test: GS enzyme inhibition assay, GS1.1 H249R; type: biochemical
Experimental: as §1

[8] = tested on: Amaranthus palmeri cytosolic GS1.1 R38E; test: GS enzyme inhibition assay, GS1.1 R38E; type: biochemical
Experimental: as §1

[9] = tested on: Amaranthus palmeri cytosolic GS1.1 A163Y; test: GS enzyme inhibition assay, GS1.1 A163Y; type: biochemical
Experimental: as §1

[10] = tested on: Amaranthus palmeri cytosolic GS1.1 E131G; test: GS enzyme inhibition assay, GS1.1 E131G; type: biochemical
Experimental: as §1

[11] = tested on: Amaranthus palmeri cytosolic GS1.1 E192K; test: GS enzyme inhibition assay, GS1.1 E192K; type: biochemical
Experimental: as §1

[12] = tested on: Amaranthus palmeri cytosolic GS1.1 E131A; test: GS enzyme inhibition assay, GS1.1 E131A; type: biochemical
Experimental: as §1

[13] = tested on: Amaranthus palmeri cytosolic GS1.1 H249L; test: GS enzyme inhibition assay, GS1.1 H249L; type: biochemical
Experimental: as §1

[14] = tested on: Amaranthus palmeri cytosolic GS1.1 A309L; test: GS enzyme inhibition assay, GS1.1 A309L; type: biochemical
Experimental: as §1

[15] = tested on: Amaranthus palmeri cytosolic GS1.1 K165S; test: GS enzyme inhibition assay, GS1.1 K165S; type: biochemical
Experimental: as §1

[16] = tested on: Amaranthus palmeri cytosolic GS1.1 Y55L; test: GS enzyme inhibition assay, GS1.1 Y55L; type: biochemical
Experimental: as §1

[17] = tested on: Amaranthus palmeri cytosolic GS1.1 R311L; test: GS enzyme inhibition assay, GS1.1 R311L; type: biochemical
Experimental: as §1

[18] = tested on: A. palmeri population from Arkansas (CCR); set-up: method as in ref 16 = [16]; 16 Priess GL , Norsworthy JK , Godara N , Mauromoustakos A , Butts TR , Roberts TL et al ., Confirmation of glufosinate‐resistant palmer amaranth and response to other herbicides . Weed Technol 36 : 3; conditions: CCR population compared with susceptible standards; listed as GFA; cited from earlier work
[19] = tested on: Amaranthus palmeri cytosolic GS1.1 K177L; test: GS enzyme inhibition assay, GS1.1 K177L; type: biochemical
Experimental: as §1

[20] = tested on: Amaranthus palmeri cytosolic GS1.1 K165V; test: GS enzyme inhibition assay, GS1.1 K165V; type: biochemical
Experimental: as §1

[21] = tested on: Amaranthus palmeri cytosolic GS1.1 D56C; test: GS enzyme inhibition assay, GS1.1 D56C; type: biochemical
Experimental: as §1

[22] = tested on: Amaranthus palmeri cytosolic GS1.1 C159H; test: GS enzyme inhibition assay, GS1.1 C159H; type: biochemical
Experimental: as §1

[23] = read-out: Glufosinate‐ammonium IC50

In the case of CP(=O)(O)CCC(N)C(=O)O (centres unmarked) [Glufosinate‐ammonium], the “Resistance index (RI)” value ([1]; IC50 variant / IC50 WT) is reported as 11.4, the IC50 [1, 23] is reported as 246 µM and the “Resistance index (RI)” value ([2]; IC50 variant / IC50 WT) is reported as 11.5. The IC50 [2, 23] was 248 µM, the IC50 [3] was 19 µM and the resistance [4] was “up to 20 fold”. The “Resistance index (RI)” value ([5]; IC50 variant / IC50 WT) was 3.0, the IC50 [5, 23] was 64 µM and the “Resistance index (RI)” value ([6]; IC50 variant / IC50 WT) was 3.2. The IC50 [6, 23] was 69 µM, the “Glufosinate‐ammonium % Inhibition at saturation 10 000 μM” value (“Glufosinate‐ammonium % Inhibition” for short) ([7]; 10 000 μM) was 29% and the IC50 [7, 23] was over 10000 µM. For the same compound, the “Resistance index (RI)” value ([8]; IC50 variant / IC50 WT) was 0.2, the IC50 [8, 23] was 4.8 µM and the “Resistance index (RI)” value ([9]; IC50 variant / IC50 WT) was 2.5. The IC50 [9, 23] was 54 µM, the “Glufosinate‐ammonium % Inhibition” value ([10]; 10 000 μM) was 7.2% and the IC50 [10, 23] was over 10000 µM. For the same compound, the “Glufosinate‐ammonium % Inhibition” value ([11]; 10 000 μM) was 1.3%, the IC50 [11, 23] was over 10000 µM and the “Glufosinate‐ammonium % Inhibition” value ([12]; 10 000 μM) was 8.5%. For the same compound, the IC50 [12, 23] was over 10000 µM, the “Glufosinate‐ammonium % Inhibition” value ([13]; 10 000 μM) was 7.8% and the IC50 [13, 23] was over 10000 µM. The “Resistance index (RI)” value ([14]; IC50 variant / IC50 WT) was 9.4, the IC50 [14, 23] was 204 µM and the “Resistance index (RI)” value ([15]; IC50 variant / IC50 WT) was 0.3. For the same compound, the IC50 [15, 23] was 7.6 µM, the “Resistance index (RI)” value ([16]; IC50 variant / IC50 WT) was 0.8 and the IC50 [16, 23] was 17 µM. The “Glufosinate‐ammonium % Inhibition” value ([17]; 10 000 μM) was 14%, the IC50 [17, 23] was over 10000 µM and the resistance indices [18] was 5.1 and 5.9. For the same compound, the “Resistance index (RI)” value ([19]; IC50 variant / IC50 WT) was 0.1, the IC50 [19, 23] was 1.3 µM and the “Resistance index (RI)” value ([20]; IC50 variant / IC50 WT) was 1.5. For the same compound, the IC50 [20, 23] was 33 µM, the “Resistance index (RI)” value ([21]; IC50 variant / IC50 WT) was 0.2 and the IC50 [21, 23] was 3.9 µM. The “Resistance index (RI)” value ([22]; IC50 variant / IC50 WT) was 186.5 and the IC50 [22, 23] was 4050 µM.
